Laboratory results from patent US20240384268A1, “Oligonucleotides” (Hudson Institute of Medical Research, priority 2021, published 2024).
Entries after “also recorded” stand apart in the source; their conditions may differ. In the oligonucleotide strings, read from the 5' end, every base follows the letter of its sugar. An asterisk marks phosphorothioate; unmarked linkages are phosphodiester. Other units and linkages are bracketed, terminal groups are in braces. A string of capitals states the bases alone. d = 2'-deoxy (DNA); m = 2'-O-methyl

Experiments:
[1] = system: THP-1 and HT-29 cells; test: Cell viability, resazurin; conditions: THP-1 100 nM, HT-29 187.5 nM; 6 h, with or without ISD70 overnight
[2] = target: cGAS (Homo sapiens, UniProt Q8N884); test: IFN-driven gene expression in BJ hTERT SV40T fibroblasts (constitutive cGAS activation), RT-qPCR; conditions: ASO transfected 20-100 nM overnight
[3] = target: T1, TLR2/1 (Mus musculus, UniProt Q9EPQ1+Q9QUN7); test: PAM3CSK4-driven TNF-α in immortalised mouse BMDMs; assay type: cell-based; conditions: iBMDMs; 500 nM ASO 6 h; PAM3C 100 ng/ml
T1 construct: endogenous in cells; host or cells: immortalised wild-type mouse BMDMs

[4] = target: T2, mouse Tlr9 (Mus musculus, UniProt Q9EQU3); test: ODN 1826-driven TNF-α in immortalised mouse BMDMs; assay type: cell-based; conditions: iBMDMs; 250-500 nM ASO; ODN 1826 500 nM overnight; listed as C2-Mutl
T2 construct: endogenous in cells; host or cells: immortalised wild-type mouse BMDMs
T2 sequence (Q9EQU3 26-1032): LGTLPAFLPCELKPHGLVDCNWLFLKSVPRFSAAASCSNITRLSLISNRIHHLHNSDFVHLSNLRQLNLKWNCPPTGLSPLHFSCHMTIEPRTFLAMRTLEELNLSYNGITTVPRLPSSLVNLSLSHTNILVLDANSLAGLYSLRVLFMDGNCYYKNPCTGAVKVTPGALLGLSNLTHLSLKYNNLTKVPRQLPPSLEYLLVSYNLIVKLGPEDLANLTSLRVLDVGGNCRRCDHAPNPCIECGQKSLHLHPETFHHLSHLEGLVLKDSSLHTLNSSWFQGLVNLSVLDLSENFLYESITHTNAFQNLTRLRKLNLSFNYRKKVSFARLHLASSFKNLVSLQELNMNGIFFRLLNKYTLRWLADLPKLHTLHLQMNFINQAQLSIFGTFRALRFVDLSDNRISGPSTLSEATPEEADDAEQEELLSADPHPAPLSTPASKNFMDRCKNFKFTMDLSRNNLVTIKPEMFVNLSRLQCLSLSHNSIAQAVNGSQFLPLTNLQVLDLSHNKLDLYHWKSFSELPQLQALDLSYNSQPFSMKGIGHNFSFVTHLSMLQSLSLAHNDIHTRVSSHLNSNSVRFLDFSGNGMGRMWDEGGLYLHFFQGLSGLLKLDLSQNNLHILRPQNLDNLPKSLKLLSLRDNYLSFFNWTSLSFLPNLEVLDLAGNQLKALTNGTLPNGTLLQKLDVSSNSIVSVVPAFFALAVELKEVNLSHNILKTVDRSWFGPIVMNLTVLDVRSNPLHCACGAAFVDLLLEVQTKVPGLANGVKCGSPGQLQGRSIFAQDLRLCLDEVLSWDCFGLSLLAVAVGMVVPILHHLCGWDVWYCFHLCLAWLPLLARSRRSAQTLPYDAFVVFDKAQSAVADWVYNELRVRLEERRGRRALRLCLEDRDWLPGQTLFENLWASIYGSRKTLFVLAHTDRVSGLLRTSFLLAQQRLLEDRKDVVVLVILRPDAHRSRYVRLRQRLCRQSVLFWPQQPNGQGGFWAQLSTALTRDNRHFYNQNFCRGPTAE

T1 sequence (Q9QUN7 25-784): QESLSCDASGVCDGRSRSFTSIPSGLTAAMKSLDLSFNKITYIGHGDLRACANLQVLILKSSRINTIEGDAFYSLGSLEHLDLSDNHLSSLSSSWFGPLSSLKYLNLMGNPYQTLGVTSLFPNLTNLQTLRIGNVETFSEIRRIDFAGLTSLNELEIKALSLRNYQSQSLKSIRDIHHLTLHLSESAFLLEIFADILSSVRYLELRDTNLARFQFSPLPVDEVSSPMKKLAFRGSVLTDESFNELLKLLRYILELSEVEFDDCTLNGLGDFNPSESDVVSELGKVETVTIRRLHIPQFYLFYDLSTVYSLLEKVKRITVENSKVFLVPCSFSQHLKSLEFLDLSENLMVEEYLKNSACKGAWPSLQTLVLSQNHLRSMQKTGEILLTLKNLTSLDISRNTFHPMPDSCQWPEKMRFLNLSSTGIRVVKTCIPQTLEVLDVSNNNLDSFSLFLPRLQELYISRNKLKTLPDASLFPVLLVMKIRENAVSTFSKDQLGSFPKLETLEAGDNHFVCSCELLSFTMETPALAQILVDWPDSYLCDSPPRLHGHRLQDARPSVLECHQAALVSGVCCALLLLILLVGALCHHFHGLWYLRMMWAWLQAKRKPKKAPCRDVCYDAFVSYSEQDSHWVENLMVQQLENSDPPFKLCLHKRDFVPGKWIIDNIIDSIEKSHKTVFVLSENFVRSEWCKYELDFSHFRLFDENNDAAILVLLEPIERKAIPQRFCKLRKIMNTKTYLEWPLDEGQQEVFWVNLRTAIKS
T1 sequence (Q9EPQ1 26-795): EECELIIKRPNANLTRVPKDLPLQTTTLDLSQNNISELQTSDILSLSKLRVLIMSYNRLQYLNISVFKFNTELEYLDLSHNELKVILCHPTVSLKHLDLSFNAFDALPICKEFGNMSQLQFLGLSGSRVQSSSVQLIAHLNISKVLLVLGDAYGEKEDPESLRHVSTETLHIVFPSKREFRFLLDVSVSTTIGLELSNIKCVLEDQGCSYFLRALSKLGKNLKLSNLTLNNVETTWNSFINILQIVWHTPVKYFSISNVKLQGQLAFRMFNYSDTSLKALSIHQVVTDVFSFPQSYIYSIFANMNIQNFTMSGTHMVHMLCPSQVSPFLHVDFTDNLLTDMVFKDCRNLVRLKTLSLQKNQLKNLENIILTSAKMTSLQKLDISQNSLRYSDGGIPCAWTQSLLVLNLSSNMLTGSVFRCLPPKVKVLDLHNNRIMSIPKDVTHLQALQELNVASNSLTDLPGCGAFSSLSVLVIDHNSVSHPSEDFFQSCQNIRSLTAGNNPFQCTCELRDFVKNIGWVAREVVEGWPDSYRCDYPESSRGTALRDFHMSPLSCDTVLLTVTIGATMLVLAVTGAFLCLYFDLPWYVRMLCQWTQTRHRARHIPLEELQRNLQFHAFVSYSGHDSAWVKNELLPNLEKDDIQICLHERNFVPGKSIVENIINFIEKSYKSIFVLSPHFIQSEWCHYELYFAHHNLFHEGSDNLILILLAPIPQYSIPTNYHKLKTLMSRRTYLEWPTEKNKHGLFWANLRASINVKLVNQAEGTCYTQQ
Sequence of cGAS (Q8N884 whole entry): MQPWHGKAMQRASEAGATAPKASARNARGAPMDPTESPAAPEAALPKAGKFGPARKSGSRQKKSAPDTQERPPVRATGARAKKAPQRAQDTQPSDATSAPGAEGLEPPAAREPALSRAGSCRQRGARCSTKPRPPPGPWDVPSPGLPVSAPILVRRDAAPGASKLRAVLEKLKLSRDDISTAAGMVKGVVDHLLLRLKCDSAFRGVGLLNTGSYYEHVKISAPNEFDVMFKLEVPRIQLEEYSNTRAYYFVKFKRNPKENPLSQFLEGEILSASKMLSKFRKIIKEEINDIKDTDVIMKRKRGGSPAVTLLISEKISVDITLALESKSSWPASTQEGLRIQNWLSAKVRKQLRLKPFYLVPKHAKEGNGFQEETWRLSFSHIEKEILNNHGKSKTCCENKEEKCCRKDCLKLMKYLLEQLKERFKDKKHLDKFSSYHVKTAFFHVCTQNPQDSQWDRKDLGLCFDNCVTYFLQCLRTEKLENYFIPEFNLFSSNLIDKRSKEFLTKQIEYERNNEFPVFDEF

mG*mC*mG*mG*mU*A*T*C*C*A*T*G*T*C*C*mC*mA*mG*mG*mC (mG*mC*mG*mG*mU*dA*dT*dC*dC*dA*dT*dG*dT*dC*dC*mC*mA*mG*mG*mC; antisense) [C2-Mut1]
cell viability [1]: did not significantly impact cell viability | inhibition of constitutively expressed ISGs (IFIT1, IFIT2, IFI44; in words) [2]: significantly more potent than its two nucleotide variant C2-Mut1v3 | TNF-α production upon PAM3CSK4 (in words) [3]: did not impact production of TNF-α | inhibition of mouse TLR9 sensing of CpG ODN (TNF-α; in words) [4]: significantly decreased sensing of the CpG ODN 1826; also recorded: very potent inhibitor of mouse TLR9
